Data published in ChEMBL document CHEMBL1201861, “Genomics of Drug Sensitity in Cancer screening data, Wellcome Trust Sanger Institute”.

Tests used:
Assay in all cases: cells
A3-KAW = assay type: functional, cell-based; conditions: Homo sapiens;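 further: growth inhibition of human A3-KAW cells, read out with a cell viability assay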
Description: SANGER: Inhibition of human A3-KAW cell growth in a cell viability assay.

COLO-668 = assay type: functional, cell-based, Homo sapiens; conditions: Homo sapiens, COLO-668
Description: SANGER: Inhibition of human COLO-668 cell growth in a cell viability assay.

EW-3 = assay type: functional, cell-based; conditions: Homo sapiens;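 further: cell viability assay read-out, IC50 reflects inhibition of growth of the EW-3 cells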
Description: SANGER: Inhibition of human EW-3 cell growth in a cell viability assay.

CAL-51 = assay type: functional, cell-based, Homo sapiens; conditions: Homo sapiens, CAL-51;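 further: human CAL-51 cell line, growth inhibition read out via a cell viability assay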
Description: SANGER: Inhibition of human CAL-51 cell growth in a cell viability assay.

C8166 = assay type: functional, cell-based; conditions: Homo sapiens;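 further: growth inhibition of human C8166 cells measured by a cell viability assay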
Description: SANGER: Inhibition of human C8166 cell growth in a cell viability assay.

ESS-1 = assay type: functional, cell-based, Homo sapiens; conditions: Homo sapiens, ESS-1;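 further: growth inhibition of human ESS-1 cells, read out by a cell viability assay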
Description: SANGER: Inhibition of human ESS-1 cell growth in a cell viability assay.

EW-18 = assay type: functional, cell-based; conditions: Homo sapiens;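 further: growth inhibition of EW-18 cells, read out by a cell viability assay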
Description: SANGER: Inhibition of human EW-18 cell growth in a cell viability assay.

BFTC-905 = assay type: functional, cell-based, Homo sapiens; conditions: Homo sapiens, BFTC-905
Description: SANGER: Inhibition of human BFTC-905 cell growth in a cell viability assay.

NCI-H292 = assay type: functional, cell-based, Homo sapiens; conditions: Homo sapiens, NCI-H292;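 further: growth inhibition of NCI-H292 cells, read out with a cell viability assay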
Description: SANGER: Inhibition of human NCI-H292 cell growth in a cell viability assay.

KLE = assay type: functional, cell-based, Homo sapiens; conditions: Homo sapiens, KLE;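 further: growth inhibition of human KLE cells, read out with a cell viability assay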
Description: SANGER: Inhibition of human KLE cell growth in a cell viability assay.

C2BBe1 = assay type: functional, cell-based, Homo sapiens; conditions: Homo sapiens, C2BBe1;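 further: growth inhibition of C2BBe1 cells, read out through a viability assay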
Description: SANGER: Inhibition of human C2BBe1 cell growth in a cell viability assay.

KARPAS-45 = assay type: functional, cell-based; conditions: Homo sapiens;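 further: inhibition of cell line growth, read out through a viability assay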
Description: SANGER: Inhibition of human KARPAS-45 cell growth in a cell viability assay.

S-117 = assay type: functional, cell-based, Homo sapiens; conditions: Homo sapiens, S-117
Description: SANGER: Inhibition of human S-117 cell growth in a cell viability assay.

KS-1 = assay type: functional, cell-based, Homo sapiens; conditions: Homo sapiens, KS-1;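 further: growth inhibition of KS-1 cells, read out with a cell viability assay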
Description: SANGER: Inhibition of human KS-1 cell growth in a cell viability assay.

786-0 = assay type: functional, cell-based, Homo sapiens; conditions: Homo sapiens
Description: SANGER: Inhibition of human 786-0 cell growth in a cell viability assay.

TGW = assay type: functional, cell-based; conditions: Homo sapiens;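 further: growth inhibition of human TGW cells, read out with a cell viability assay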
Description: SANGER: Inhibition of human TGW cell growth in a cell viability assay.

NCI-H82 = assay type: functional, cell-based; conditions: Homo sapiens;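 further: growth inhibition of NCI-H82 cells, measured with a cell viability readout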
Description: SANGER: Inhibition of human NCI-H82 cell growth in a cell viability assay.

MeWo = assay type: functional, cell-based, Homo sapiens; conditions: Homo sapiens, MeWo;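 further: growth inhibition of MeWo cells, determined by a cell viability readout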
Description: SANGER: Inhibition of human Mewo cell growth in a cell viability assay.

D-502MG = assay type: functional, cell-based, Homo sapiens; conditions: Homo sapiens, D-502MG
Description: SANGER: Inhibition of human D-502MG cell growth in a cell viability assay.

OCUB-M = assay type: functional, cell-based, Homo sapiens; conditions: Homo sapiens, OCUB-M;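 further: growth inhibition of the cancer cell line, read out through a cell viability assay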
Description: SANGER: Inhibition of human OCUB-M cell growth in a cell viability assay.

KE-37 = assay type: functional, cell-based; conditions: Homo sapiens;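 further: growth inhibition of KE-37 cells, read out with a cell viability assay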
Description: SANGER: Inhibition of human KE-37 cell growth in a cell viability assay.

MOLT-16 = assay type: functional, cell-based; conditions: Homo sapiens;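 further: growth inhibition of human MOLT-16 cells, read out with a cell viability assay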
Description: SANGER: Inhibition of human MOLT-16 cell growth in a cell viability assay.

AN3-CA = assay type: functional, cell-based; conditions: Homo sapiens;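 further: growth inhibition of human AN3-CA cells measured by a cell viability assay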
Description: SANGER: Inhibition of human AN3-CA cell growth in a cell viability assay.

U2OS = assay type: functional, cell-based, Homo sapiens, U-2-OS; conditions: Homo sapiens, U2OS;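 further: growth inhibition of human U-2-OS cells, determined with a cell viability assay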
Description: SANGER: Inhibition of human U-2-OS cell growth in a cell viability assay.

SW-620 = assay type: functional, cell-based, Homo sapiens; conditions: Homo sapiens, SW-620;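 further: growth inhibition of human SW-620 cells, measured by a cell viability assay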
Description: SANGER: Inhibition of human SW620 cell growth in a cell viability assay.

AU565 = assay type: functional, cell-based, Homo sapiens; conditions: Homo sapiens, AU565;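 further: cell viability assay measuring growth inhibition of human AU565 cells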
Description: SANGER: Inhibition of human AU565 cell growth in a cell viability assay.

SW872 = assay type: functional, cell-based, Homo sapiens; conditions: Homo sapiens, SW872;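 further: growth inhibition of SW872 cells, read out by a viability assay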
Description: SANGER: Inhibition of human SW872 cell growth in a cell viability assay.

P30-OHK = assay type: functional, cell-based; conditions: Homo sapiens;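 further: growth inhibition of the P30-OHK cell line, read out with a cell viability assay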
Description: SANGER: Inhibition of human P30-OHK cell growth in a cell viability assay.

JEG-3 = assay type: functional, cell-based, Homo sapiens; conditions: Homo sapiens, JEG-3;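 further: growth inhibition of human JEG-3 cells, read out with a cell viability assay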
Description: SANGER: Inhibition of human JEG-3 cell growth in a cell viability assay.

PC-3 = assay type: functional, cell-based, Homo sapiens; conditions: Homo sapiens, PC-3;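 further: cell viability assay measuring growth inhibition of PC-3 cells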
Description: SANGER: Inhibition of human PC-3 cell growth in a cell viability assay.

CAPAN-1 = assay type: functional, cell-based, Homo sapiens; conditions: Homo sapiens, CAPAN-1;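 further: growth suppression of CAPAN-1 cells, read out by a cell viability assay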
Description: SANGER: Inhibition of human CAPAN-1 cell growth in a cell viability assay.

A388 = assay type: functional, cell-based, Homo sapiens; conditions: Homo sapiens, A388;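 further: growth inhibition of human A388 cells, read out with a cell viability assay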
Description: SANGER: Inhibition of human A388 cell growth in a cell viability assay.

KU812 cell line = assay type: functional, cell-based; conditions: Homo sapiens;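 further: growth inhibition of KU812 cells, read out with a cell viability assay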
Description: SANGER: Inhibition of human KU812 cell growth in a cell viability assay.

RKO = assay type: functional, cell-based, Homo sapiens; conditions: Homo sapiens, RKO;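 further: growth inhibition of human RKO cells, read out with a cell viability assay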
Description: SANGER: Inhibition of human RKO cell growth in a cell viability assay.

DOK = assay type: functional, cell-based, Homo sapiens; conditions: Homo sapiens, DOK;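 further: cell viability assay read-out, values reflect inhibition of cell growth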
Description: SANGER: Inhibition of human DOK cell growth in a cell viability assay.

LoVo = assay type: functional, cell-based; conditions: Homo sapiens;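 further: growth inhibition of human LoVo cells, read out with a cell viability assay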
Description: SANGER: Inhibition of human LoVo cell growth in a cell viability assay.

VM-CUB-1 = assay type: functional, cell-based; conditions: Homo sapiens;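 further: cell viability assay measuring growth inhibition of the human VM-CUB-1 cell line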
Description: SANGER: Inhibition of human VM-CUB-1 cell growth in a cell viability assay.

CaR-1 = assay type: functional, cell-based, Homo sapiens; conditions: Homo sapiens, CaR-1;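 further: growth inhibition of human CaR-1 cancer cells, read out with a cell viability assay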
Description: SANGER: Inhibition of human CaR-1 cell growth in a cell viability assay.

HCE-4 = assay type: functional, cell-based, Homo sapiens; conditions: Homo sapiens, HCE-4;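 further: cell viability assay measuring inhibition of growth in the human HCE-4 cell line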
Description: SANGER: Inhibition of human HCE-4 cell growth in a cell viability assay.

M059J = assay type: functional, cell-based, Homo sapiens; conditions: Homo sapiens, M059J;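 further: growth inhibition of M059J cells, read out with a cell viability assay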
Description: SANGER: Inhibition of human M059J cell growth in a cell viability assay.

SK-LU-1 = assay type: functional, cell-based, Homo sapiens; conditions: Homo sapiens, SK-LU-1;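 further: cell viability assay measuring growth inhibition of human SK-LU-1 cells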
Description: SANGER: Inhibition of human SK-LU-1 cell growth in a cell viability assay.

NCI-H1355 = assay type: functional, cell-based, Homo sapiens; conditions: Homo sapiens, NCI-H1355;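 further: growth inhibition of human NCI-H1355 cells, read out by a cell viability assay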
Description: SANGER: Inhibition of human NCI-H1355 cell growth in a cell viability assay.

NCI-H1755 = assay type: functional, cell-based, Homo sapiens; conditions: Homo sapiens, NCI-H1755;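 further: cell viability readout used to measure growth inhibition of NCI-H1755 cells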
Description: SANGER: Inhibition of human NCI-H1755 cell growth in a cell viability assay.

SF-126 = assay type: functional, cell-based, Homo sapiens; conditions: Homo sapiens, SF-126;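 further: growth inhibition of human SF126 cells, read out with a cell viability assay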
Description: SANGER: Inhibition of human SF126 cell growth in a cell viability assay.

NMC-G1 = assay type: functional, cell-based, Homo sapiens; conditions: Homo sapiens, NMC-G1;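 further: growth inhibition of the NMC-G1 cell line, measured with a cell viability read-out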
Description: SANGER: Inhibition of human NMC-G1 cell growth in a cell viability assay.

SCC-9 = assay type: functional, cell-based, Homo sapiens; conditions: Homo sapiens, SCC-9;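 further: Read-out is a cell viability assay, with values giving inhibition of cell growth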
Description: SANGER: Inhibition of human SCC-9 cell growth in a cell viability assay.

HCC1954 = assay type: functional, cell-based, Homo sapiens; conditions: Homo sapiens, HCC1954;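 further: growth inhibition of human HCC1954 cells, read out with a cell viability assay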
Description: SANGER: Inhibition of human HCC1954 cell growth in a cell viability assay.

SiHa = assay type: functional, cell-based, Homo sapiens; conditions: Homo sapiens, SiHa;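 further: Viability-based readout of growth inhibition in SiHa cells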
Description: SANGER: Inhibition of human SiHa cell growth in a cell viability assay.

M14 = assay type: functional, cell-based, Homo sapiens; conditions: Homo sapiens, M14;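 further: growth inhibition of M14 cells, read out with a cell viability assay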
Description: SANGER: Inhibition of human M14 cell growth in a cell viability assay.

NCI-H69 = assay type: functional, cell-based; conditions: Homo sapiens;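 further: growth inhibition of the cell line, read out with a cell viability assay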
Description: SANGER: Inhibition of human NCI-H69 cell growth in a cell viability assay.

KYSE-180 = assay type: functional, cell-based, Homo sapiens; conditions: Homo sapiens, KYSE-180;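 further: growth inhibition of KYSE-180 cells, read out with a cell viability assay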
Description: SANGER: Inhibition of human KYSE-180 cell growth in a cell viability assay.

OVCAR-4 = assay type: functional, cell-based, Homo sapiens; conditions: Homo sapiens, OVCAR-4;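 further: growth inhibition of human OVCAR-4 cells, measured with a cell viability assay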
Description: SANGER: Inhibition of human OVCAR-4 cell growth in a cell viability assay.

RPMI-8866 = assay type: functional, cell-based; conditions: Homo sapiens
Description: SANGER: Inhibition of human RPMI-8866 cell growth in a cell viability assay.

HMV-2 cell line = assay type: functional, cell-based, Homo sapiens; conditions: Homo sapiens, HMV-2;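 further: growth inhibition of HMV-II cells, read out with a cell viability assay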
Description: SANGER: Inhibition of human HMV-II cell growth in a cell viability assay.

SMILES: COc1cc(F)c(F)c(Nc2ccc(I)cc2F)c1NS(=O)(=O)C1(CC(O)CO)CC1 (centres undefined)
- IC50 (A3-KAW): > 5 µM
- IC50 (COLO-668): > 5 µM
- IC50 (EW-3): 0.103 µM
- IC50 (CAL-51): > 5 µM
- IC50 (C8166): > 5 µM
- IC50 (ESS-1): > 5 µM
- IC50 (EW-18): 2.77 µM
- IC50 (BFTC-905): 0.719 µM
- IC50 (NCI-H292): 0.64 µM
- IC50 (KLE): > 5 µM
- IC50 (C2BBe1): 0.559 µM
- IC50 (KARPAS-45): 1.14 µM
- IC50 (S-117): > 5 µM
- IC50 (KS-1): 1.26 µM
- IC50 (786-0): 2.37 µM
- IC50 (TGW): > 5 µM
- IC50 (NCI-H82): > 5 µM
- IC50 (MeWo): 0.753 µM
- IC50 (D-502MG): 3.81 µM
- IC50 (OCUB-M): > 5 µM
- IC50 (KE-37): > 5 µM
- IC50 (MOLT-16): > 5 µM
- IC50 (AN3-CA): > 5 µM
- IC50 (U2OS): 2.75 µM
- IC50 (SW-620): 0.276 µM
- IC50 (AU565): > 5 µM
- IC50 (SW872): 0.774 µM
- IC50 (P30-OHK): > 5 µM
- IC50 (JEG-3): > 5 µM
- IC50 (PC-3): > 5 µM
- IC50 (CAPAN-1): 4.15 µM
- IC50 (A388): > 5 µM
- IC50 (KU812 cell line): 0.239 µM
- IC50 (RKO): 1.39 µM
- IC50 (DOK): 0.432 µM
- IC50 (LoVo): 0.396 µM
- IC50 (VM-CUB-1): 3.65 µM
- IC50 (CaR-1): > 5 µM
- IC50 (HCE-4): > 5 µM
- IC50 (M059J): > 5 µM
- IC50 (SK-LU-1): > 5 µM
- IC50 (NCI-H1355): > 5 µM
- IC50 (NCI-H1755): > 5 µM
- IC50 (SF-126): > 5 µM
- IC50 (NMC-G1): > 5 µM
- IC50 (SCC-9): > 5 µM
- IC50 (HCC1954): > 5 µM
- IC50 (SiHa): > 5 µM
- IC50 (M14): 0.0286 µM
- IC50 (NCI-H69): > 5 µM
- IC50 (KYSE-180): > 5 µM
- IC50 (OVCAR-4): > 5 µM
- IC50 (RPMI-8866): > 5 µM

SMILES: COC(=O)CNC(=O)C(=O)OC
- IC50 (A3-KAW): 15.8 µM
- IC50 (COLO-668): 93.8 µM
- IC50 (EW-3): 1890 µM
- IC50 (CAL-51): 238 µM
- IC50 (C8166): 1040 µM
- IC50 (ESS-1): 198 µM
- IC50 (EW-18): 1510 µM
- IC50 (BFTC-905): 580 µM
- IC50 (NCI-H292): 103 µM
- IC50 (KLE): 1580 µM
- IC50 (C2BBe1): 1730 µM
- IC50 (KARPAS-45): 484 µM
- IC50 (S-117): 3860 µM
- IC50 (KS-1): 11.3 µM
- IC50 (786-0): > 4000 µM
- IC50 (TGW): > 4000 µM
- IC50 (NCI-H82): > 4000 µM
- IC50 (MeWo): 230 µM
- IC50 (D-502MG): > 4000 µM
- IC50 (OCUB-M): > 4000 µM
- IC50 (KE-37): 43.3 µM
- IC50 (MOLT-16): 127 µM
- IC50 (AN3-CA): 209 µM
- IC50 (SW-620): 3230 µM
- IC50 (HMV-2 cell line): > 4000 µM
- IC50 (AU565): > 4000 µM
- IC50 (SW872): 603 µM
- IC50 (P30-OHK): 467 µM
- IC50 (JEG-3): 908 µM
- IC50 (PC-3): 418 µM
- IC50 (CAPAN-1): 101 µM
- IC50 (A388): 2460 µM
- IC50 (KU812 cell line): 28.5 µM
- IC50 (RKO): 2460 µM
- IC50 (DOK): > 4000 µM
- IC50 (LoVo): 951 µM
- IC50 (VM-CUB-1): 151 µM
- IC50 (CaR-1): 220 µM
- IC50 (HCE-4): 546 µM
- IC50 (M059J): 541 µM
- IC50 (SK-LU-1): 66 µM
- IC50 (NCI-H1355): 274 µM
- IC50 (NCI-H1755): 2740 µM
- IC50 (SF-126): 220 µM
- IC50 (NMC-G1): 466 µM
- IC50 (SCC-9): 122 µM
- IC50 (HCC1954): 900 µM
- IC50 (SiHa): 1180 µM
- IC50 (M14): 1860 µM
- IC50 (NCI-H69): > 4000 µM
- IC50 (KYSE-180): > 4000 µM
- IC50 (OVCAR-4): 93.8 µM
- IC50 (RPMI-8866): > 4000 µM

SMILES: COc1ccc(-c2ccc3c(N4CCOC[C@@H]4C)nc(N4CCOC[C@@H]4C)nc3n2)cc1CO [AZD-8055]
- IC50 (A3-KAW): 0.297 µM
- IC50 (COLO-668): > 2 µM
- IC50 (EW-3): 0.0406 µM
- IC50 (CAL-51): 0.197 µM
- IC50 (C8166): > 2 µM
- IC50 (ESS-1): > 2 µM
- IC50 (EW-18): 0.141 µM
- IC50 (BFTC-905): 0.621 µM
- IC50 (NCI-H292): 0.292 µM
- IC50 (KLE): > 2 µM
- IC50 (C2BBe1): 1.17 µM
- IC50 (KARPAS-45): 0.0337 µM
- IC50 (S-117): > 2 µM
- IC50 (KS-1): 1.25 µM
- IC50 (786-0): 1.09 µM
- IC50 (TGW): > 2 µM
- IC50 (NCI-H82): > 2 µM
- IC50 (MeWo): 1.09 µM
- IC50 (D-502MG): > 2 µM
- IC50 (OCUB-M): 0.827 µM
- IC50 (KE-37): 0.432 µM
- IC50 (MOLT-16): 0.938 µM
- IC50 (AN3-CA): 0.0795 µM
- IC50 (U2OS): 0.76 µM
- IC50 (SW-620): > 2 µM
- IC50 (AU565): > 2 µM
- IC50 (SW872): 1.39 µM
- IC50 (P30-OHK): 0.327 µM
- IC50 (JEG-3): 1.58 µM
- IC50 (PC-3): 0.722 µM
- IC50 (CAPAN-1): > 2 µM
- IC50 (A388): > 2 µM
- IC50 (KU812 cell line): 0.0804 µM
- IC50 (RKO): 0.868 µM
- IC50 (DOK): 0.513 µM
- IC50 (LoVo): 0.202 µM
- IC50 (VM-CUB-1): 0.473 µM
- IC50 (CaR-1): 1.75 µM
- IC50 (HCE-4): > 2 µM
- IC50 (M059J): > 2 µM
- IC50 (SK-LU-1): 0.392 µM
- IC50 (NCI-H1355): 0.539 µM
- IC50 (NCI-H1755): 1.14 µM
- IC50 (SF-126): 0.887 µM
- IC50 (NMC-G1): 1.31 µM
- IC50 (SCC-9): > 2 µM
- IC50 (HCC1954): > 2 µM
- IC50 (SiHa): > 2 µM
- IC50 (M14): 0.472 µM
- IC50 (NCI-H69): 1.67 µM
- IC50 (KYSE-180): 1.11 µM
- IC50 (OVCAR-4): 0.819 µM
- IC50 (RPMI-8866): 0.858 µM
